# US20130156934A1, “MICROCAPSULES BY COACERVATION CONTAINING A PHARMACEUTICAL INCORPORATED IN THE COATING POLYMER” (APTALIS PHARMA LIMITED, priority 2003, published 2013)
# Tests used:
# [1] = Dissolution test according to USP 26 at pH 6.8; type: physicochemical
# Procedure: A dissolution test is carried out on the microcapsules thus obtained comparing them with anhydrous theophylline in crystalline form.
# The dissolution test was performed according to USP 26.
# A dissolution test is carried out on the microcapsules obtained in Examples 5 and 6 according to the method previously described for Example 4
# Dissolution test was performed according to USP 26
# A dissolution test is carried out on the microcapsules thus obtained compared to fluoxetine raw material.
# Dissolution test was performed according to USP 26.
# [2] = Dissolution test according to USP 26 at pH 1.2; type: physicochemical; settings: caffeine
# Procedure: The microcapsutes obtained, when analysed with an electronic microscope (FIG. 3), show a distribution of the particles of the active principle within the polymeric membrane in the form of solid particles that are prevalently disposed at the interface between the polymer and the core. […] Dissolution test was performed according to USP 26.
structure (smiles),measurement,setting,value
Cn1c(=O)c2[nH]cnc2n(C)c1=O [Anhydrous Theophylline],"Dissolution % at pH 6.8, 5 min","[1]; theophylline, USP 26",65%
same,"Dissolution % at pH 6.8, 10 min","[1]; theophylline, Table of Example 7, lower head",100%
same,"Dissolution % at pH 6.8, 15 min","[1]; 15 min, theophylline, USP 26",100%
Cn1c(=O)c2c(ncn2C)n(C)c1=O [Caffeine],"Dissolution % at pH 1.2, 60 min",[2],100%
CNCCC(Oc1ccc(C(F)(F)F)cc1)c1ccccc1 (stereo not shown) [Fluoxetine],"Dissolution % at pH 6.8, 5 min","[1]; fluoxetine, USP 26",55%
same,"Dissolution % at pH 6.8, 10 min","[1]; fluoxetine, USP 26",75%
same,"Dissolution % at pH 6.8, 20 min","[1]; 20 min, fluoxetine, USP 26",100%
